System: AR / CBP ternary complex
Test: Ternary complex formation assay (sandwich ELISA, AR capture / CBP detection) in VCaP cell lysates
Assay type: cell-based
Settings: 1.5 hours treatment, sandwich ELISA (AR capture, CBP or p300 detection)
Protocol: Preparation of Mouse Anti-AR Antibody Coated 96 Well Plates
Black MaxiSorp plates: coat with 50 μL of mouse 1/50 diluted AR antibody (Monoclonal Antibody (AR 441 from Thermo Fisher); diluted in phosphate buffered saline (PBS). Spin the liquid to the bottom of the wells, if necessary. Incubate overnight at 4° C. Next day, wash 3 times with 200 μL of TBST. Block with 200 μL of blocking buffer (5% BSA in TBST) at room temperature for 2 hours (BSA: A4503 or A2153 from Sigma). Wash plates 3 times with TBST. Plates are ready for lysates Preparation of dimerizer treated lysates
Culture cells in 96 wells at 50K VCaP cells/well for at least 3 days. Plate in 5% Omega charcoal stripped FBS in total volume of 200 uL. Treat with bifunctional for 1.5 hours by adding 1 μL of 200× stock in DMSO. Aspirate media/compound. Add and pipet-to-mix 70 μL of 1× AlphaLisa Lysis Buffer to each well (Perkin Elmer, AlphaLISA SureFire Ultra, diluted in water). Pipet up and down when adding lysis buffer to disrupt cells. Let lysis proceed for 30 min at 4° C.
Incubate for 1 hour at room temperature. Flick out the lysates. Wash 3 times with TBST. Add 75 μL of rabbit CBP or p300 antibody to each well (diluted 1:5000 in blocking buffer (5% BSA in TBST). CBP antibody: (D6C5) Rabbit mAb #7389; p300 antibody: (D8Z4E) Rabbit mAb #86377. Incubate overnight at 4° C. Wash 3 times with 300 uL TBST, each time on shaker for 5-10 min. Prepare goat anti-rabbit antibody conjugated to HRP (1/100K dilution in blocking buffer) Invitrogen Catalog number: 32260. Add 75 μL of HRP-conjugated goat anti-rabbit antibody. Incubate at room temperature for 1 hour. Flick out the HRP-antibody mixture. Wash 7-8 times with TBST, each time on shaker for 10 min. Later washes try to overflow the wells so that no residual HRP remains bound to the sides of the well. Prepare and add 75 uL/well of QuantaRed Enhance Chemifluorescent HRP Substrate solution. Immediately read fluorescence on BMG ClarioStar (ex: 570/em 585), and repeat the read in 5 minutes and 15 minutes.

EC50	SMILES
1 to 10 nM	COc1cc(OC2C(C)(C)C(NC(=O)c3ccc(N4CCC5(CC4)CC(Oc4ccc(-c6cc7c(cc6C(F)F)N(c6nn(C8CCOCC8)c8c6CN(C(C)=O)CC8)CCC7)cc4)C5)cc3)C2(C)C)ccc1C#N (centres unmarked) [Compound 307, 4-[2-[4-[1-(5-acetyl-1-tetrahydropyran-4-yl-6,7-dihydro-4H-pyrazolo[4,3-c]pyridin-3-yl)-7-(difluoromethyl)-3,4-dihydro-2H-quinolin-6-yl]phenoxy]-7-azaspiro[3.5]nonan-7-yl]-N-[3-(4-cyano-3-methoxy-phenoxy)-2,2,4,4-tetramethyl-cyclobutyl]benzamide]
> 100 nM	CC(=O)N1CCc2c(c(N3CCCc4cc(-c5cnn(C)c5)c(C(F)F)cc43)nn2C2CCC3(CC2)CCN(c2ncc(C(=O)NC4C(C)(C)C(Oc5ccc(C#N)c(Cl)c5)C4(C)C)cn2)C3)C1 (centres unmarked) [Compound 408, 2-[8-[5-acetyl-3-[7-(difluoromethyl)-6-(1-methylpyrazol-4-yl)-3,4-dihydro-2H-quinolin-1-yl]-6,7-dihydro-4H-pyrazolo[4,3-c]pyridin-1-yl]-2-azaspiro[4.5]decan-2-yl]-N-[3-(3-chloro-4-cyano-phenoxy)-2,2,4,4-tetramethyl-cyclobutyl]pyrimidine-5-carboxamide]
< 1 nM	CC(=O)N1CCc2c(c(N3CCCc4cc(-c5cnn(C)c5)c(C(F)F)cc43)nn2C2CCN(CC3C(C)CN(c4ncc(C(=O)NC5C(C)(C)C(Oc6ccc(C#N)c(C(F)(F)F)c6)C5(C)C)cn4)CC3C)CC2)C1 (centres unmarked) [Compound 463, 2-[4-[[4-[5-acetyl-3-[7-(difluoromethyl)-6-(1-methylpyrazol-4-yl)-3,4-dihydro-2H-quinolin-1-yl]-6,7-dihydro-4H-pyrazolo[4,3-c]pyridin-1-yl]-1-piperidyl]methyl]-3,5-dimethyl-1-piperidyl]-N-[3-[4-cyano-3-(trifluoromethyl)phenoxy]-2,2,4,4-tetramethyl-cyclobutyl]pyrimidine-5-carboxamide]
< 1 nM	COc1cc(OC2C(C)(C)C(NC(=O)c3ccc(OC4CCC(N5CCC(n6nc(N7CCCc8cc(-c9cnn(C)c9)c(C(F)F)cc87)c7c6CCN(C(C)=O)C7)CC5)CC4)cc3)C2(C)C)ccc1C#N (centres unmarked) [Compound 381, 4-[4-[4-[5-acetyl-3-[7-(difluoromethyl)-6-(1-methylpyrazol-4-yl)-3,4-dihydro-2H-quinolin-1-yl]-6,7-dihydro-4H-pyrazolo[4,3-c]pyridin-1-yl]-1-piperidyl]cyclohexoxy]-N-[3-(4-cyano-3-methoxy-phenoxy)-2,2,4,4-tetramethyl-cyclobutyl]benzamide]

The next lines start with the molecule.

SMILES	EC50
CC(=O)N1CCc2c(c(N3CCCc4cc(-c5cnn(C)c5)c(C(F)F)cc43)nn2C2CCC(N3CCN(c4ncc(C(=O)NC5C(C)(C)C(Oc6ccc(C#N)c(Cl)c6)C5(C)C)cn4)CC3)CC2)C1 (centres unmarked) [Compound 391, 2-[4-[4-[5-acetyl-3-[7-(difluoromethyl)-6-(1-methylpyrazol-4-yl)-3,4-dihydro-2H-quinolin-1-yl]-6,7-dihydro-4H-pyrazolo[4,3-c]pyridin-1-yl]cyclohexyl]piperazin-1-yl]-N-[3-(3-chloro-4-cyano-phenoxy)-2,2,4,4-tetramethyl-cyclobutyl]pyrimidine-5-carboxamide]	< 1 nM
CC(=O)N1CCc2c(c(N3CCCc4cc(-c5cnn(C)c5)c(C(F)F)cc43)nn2C2CCN(C(=O)C3CN(c4ncc(C(=O)NC5C(C)(C)C(Oc6ccc(C#N)c(Cl)c6)C5(C)C)cn4)C3)CC2)C1 (centres unmarked) [Compound 118, 2-[3-[4-[5-acetyl-3-[7-(difluoromethyl)-6-(1-methylpyrazol-4-yl)-3,4-dihydro-2H-quinolin-1-yl]-6,7-dihydro-4H-pyrazolo[4,3-c]pyridin-1-yl]piperidine-1-carbonyl]azetidin-1-yl]-N-[3-(3-chloro-4-cyano-phenoxy)-2,2,4,4-tetramethyl-cyclobutyl]pyrimidine-5-carboxamide]	> 100 nM
CC(=O)N1CCc2c(c(N3CCCc4cc(-c5cnn(C)c5)c(C(F)F)cc43)nn2C2CCC3(CCCN(C4CN(c5ncc(C(=O)NC6C(C)(C)C(Oc7ccc(C#N)c(Cl)c7)C6(C)C)cn5)C4)C3)CC2)C1 (centres unmarked) [Compound 414, 2-[3-[9-[5-acetyl-3-[7-(difluoromethyl)-6-(1-methylpyrazol-4-yl)-3,4-dihydro-2H-quinolin-1-yl]-6,7-dihydro-4H-pyrazolo[4,3-c]pyridin-1-yl]-2-azaspiro[5.5]undecan-2-yl]azetidin-1-yl]-N-[3-(3-chloro-4-cyano-phenoxy)-2,2,4,4-tetramethyl-cyclobutyl]pyrimidine-5-carboxamide]	< 1 nM
CC(=O)N1CCc2c(c(N3CCCc4cc(-c5cnn(C)c5)c(C(F)F)cc43)nn2C2CCN(C(=O)C3CCN(c4ccc(C(=O)NC5C(C)(C)C(Oc6ccc(C#N)c(Cl)c6)C5(C)C)cc4)CC3)CC2)C1 (centres unmarked) [Compound 116, 4-[4-[4-[5-acetyl-3-[7-(difluoromethyl)-6-(1-methylpyrazol-4-yl)-3,4-dihydro-2H-quinolin-1-yl]-6,7-dihydro-4H-pyrazolo[4,3-c]pyridin-1-yl]piperidine-1-carbonyl]-1-piperidyl]-N-[3-(3-chloro-4-cyano-phenoxy)-2,2,4,4-tetramethyl-cyclobutyl]benzamide]	> 100 nM
CC(=O)N1CCc2c(c(N3CCCc4cc(-c5cnn(C)c5)c(C(F)F)cc43)nn2C2CN(C(=O)CC3CCN(c4ncc(C(=O)NC5C(C)(C)C(Oc6ccc(C#N)c(Cl)c6)C5(C)C)cn4)CC3)C2)C1 (centres unmarked) [Compound 163, 2-[4-[2-[3-[5-acetyl-3-[7-(difluoromethyl)-6-(1-methylpyrazol-4-yl)-3,4-dihydro-2H-quinolin-1-yl]-6,7-dihydro-4H-pyrazolo[4,3-c]pyridin-1-yl]azetidin-1-yl]-2-oxo-ethyl]-1-piperidyl]-N-[3-(3-chloro-4-cyano-phenoxy)-2,2,4,4-tetramethyl-cyclobutyl]pyrimidine-5-carboxamide]	< 1 nM
COc1cc(OC2C(C)(C)C(NC(=O)c3ccc(N4CCC5(CCC(n6nc(N7CCCc8cc(-c9cnn(C)c9)c(C(F)F)cc87)c7c6CCN(C(C)=O)C7)CC5)C4)cc3)C2(C)C)ccc1C#N (centres unmarked) [Compound 405, 4-[8-[5-acetyl-3-[7-(difluoromethyl)-6-(1-methylpyrazol-4-yl)-3,4-dihydro-2H-quinolin-1-yl]-6,7-dihydro-4H-pyrazolo[4,3-c]pyridin-1-yl]-2-azaspiro[4.5]decan-2-yl]-N-[3-(4-cyano-3-methoxy-phenoxy)-2,2,4,4-tetramethyl-cyclobutyl]benzamide]	10 to 100 nM
CC(=O)N1CCc2c(c(N3CCCc4cc(-c5cnn(C)c5)c(C(F)F)cc43)nn2C2CCN(C3CC4(CCN(c5ncc(C(=O)NC6C(C)(C)C(Oc7ccc(C#N)c(Cl)c7)C6(C)C)cn5)C4)C3)CC2)C1 (centres unmarked) [Compound 346, 2-[2-[4-[5-acetyl-3-[7-(difluoromethyl)-6-(1-methylpyrazol-4-yl)-3,4-dihydro-2H-quinolin-1-yl]-6,7-dihydro-4H-pyrazolo[4,3-c]pyridin-1-yl]-1-piperidyl]-6-azaspiro [3.4]octan-6-yl]-N-[3-(3-chloro-4-cyano-phenoxy)-2,2,4,4-tetramethyl-cyclobutyl]pyrimidine-5-carboxamide]	< 1 nM
